Data published in the supplement of paper PMC10307832.

Assays:
Assay in all cases: relative viability (nuclei count vs DMSO), 5 days (fraction); higher = more cells survive
[1] = compound: CN(c1ncccc1CNc1nc(Nc2ccc3c(c2)CC(=O)N3)ncc1C(F)(F)F)S(C)(=O)=O + Cc1nc(Nc2ncc(C(=O)Nc3c(C)cccc3Cl)s2)cc(N2CCN(CCO)CC2)n1 [Dasatinib] (partner 0.075 µM)
Summary of the method: (§1)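 Lung cancer cell lines were seeded in 1536-well plates and dosed by pin tool the next day, with either a single drug or a fixed anchor-drug dose combined with five library-drug doses (not always all listed) spaced in √10 steps. Five days later, one step fixed the cells and stained their nuclei (final 0.05% Triton X-100, 1% formaldehyde, 1 ug/ml Hoechst), and nuclei were counted on 4× images. Relative viability is the nuclei count in treated wells divided by the count in vehicle wells, and each value is the median of duplicate plates.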

[2] = compound: CN(c1ncccc1CNc1nc(Nc2ccc3c(c2)CC(=O)N3)ncc1C(F)(F)F)S(C)(=O)=O + Cc1cc(Nc2cc(N3CCN(C)CC3)nc(Sc3ccc(NC(=O)C4CC4)cc3)n2)n[nH]1 [Tozasertib] (partner 0.1 µM)
Summary of the method: as §1

[3] = compound: CN(c1ncccc1CNc1nc(Nc2ccc3c(c2)CC(=O)N3)ncc1C(F)(F)F)S(C)(=O)=O + Cc1nc(NC(=O)N2CCC[C@H]2C(N)=O)sc1-c1ccnc(C(C)(C)C(F)(F)F)c1 [Alpelisib] (partner 2 µM)
Summary of the method: as §1

[4] = compound: CN(c1ncccc1CNc1nc(Nc2ccc3c(c2)CC(=O)N3)ncc1C(F)(F)F)S(C)(=O)=O + CCNC(=O)c1noc(-c2cc(C(C)C)c(O)cc2O)c1-c1ccc(CN2CCOCC2)cc1 [Luminespib] (partner 0.01 µM)
Summary of the method: as §1

Cell Line	relative viability ([1]; first compound 0.01 µM)	relative viability ([1]; first compound 0.03162 µM)	relative viability ([1]; first compound 0.1 µM)	relative viability ([1]; first compound 0.3162 µM)	relative viability ([1]; first compound 1 µM)	relative viability ([2]; first compound 0.01 µM)	relative viability ([2]; first compound 0.03162 µM)	relative viability ([2]; first compound 0.1 µM)	relative viability ([2]; first compound 0.3162 µM)	relative viability ([2]; first compound 1 µM)	relative viability ([3]; first compound 0.01 µM)	relative viability ([3]; first compound 0.03162 µM)	relative viability ([3]; first compound 0.1 µM)	relative viability ([3]; first compound 0.3162 µM)	relative viability ([3]; first compound 1 µM)	relative viability ([4]; first compound 0.01 µM)	relative viability ([4]; first compound 0.03162 µM)	relative viability ([4]; first compound 0.1 µM)	relative viability ([4]; first compound 0.3162 µM)	relative viability ([4]; first compound 1 µM)
LXF-289	0.187	0.181	0.129	0.12	0.121	0.176	0.178	0.242	0.18	0.17	1.05	1.07	1.07	0.988	0.947	0.679	0.728	0.645	0.656	0.622
NCI-H23	0.78	0.697	0.882	0.835	0.719	0.494	0.356	0.407	0.295	0.351	0.668	0.84	0.727	0.692	0.56	0.182	0.204	0.207	0.228	0.207
NCI-H322M	0.205	0.178	0.223	0.199	0.219	0.505	0.504	0.491	0.504	0.472	0.821	0.79		0.902	0.96	0.798	1	0.966	1.03	0.896
NCI-H522	0.889	0.832	0.95	0.725	0.979	0.542	0.447	0.469	0.511	0.61						1.17	1.2	1.17	1.14	1.15
NCI-H1563	0.458	0.422	0.429	0.372	0.385						0.867	1.03	0.897	0.917	0.933	0.538	0.528	0.53	0.482	0.547
NCI-H1648						0.433	0.36	0.317	0.386	0.407										
NCI-H1650	0.303	0.367	0.339	0.303	0.327	0.497	0.359	0.429	0.323	0.269						0.203	0.207	0.194	0.193	0.198
NCI-H1703											0.329	0.419	0.321	0.345	0.294					
NCI-H1792	0.803	0.841	0.623	0.581	0.55						0.661	0.68	0.654	0.695	0.728	0.387	0.54	0.467	0.451	0.359
NCI-H2342	0.32	0.306	0.306	0.286	0.297	0.524	0.493	0.561	0.409	0.489						0.702	0.736	0.643	0.632	0.723
SW 900	0.559	0.613	0.477	0.456	0.403	0.547	0.629	0.543	0.495	0.446						0.216	0.2	0.19	0.154	0.168
